In patent publication US20250082624A1, “METHODS OF TREATING COGNITIVE IMPAIRMENT” (NeuroTherapia, Inc., priority 2023, published 2025):
“And” between values parts separate entries of the source, which are not always exact repeats. Equal values may be shown once. “Also recorded” adds a separate entry of the source.

Key:
AD cohort [1] = experiment: Cognitive testing ADAS-COG in AD cohort; format: in vivo, human; details: 90 mg QD 7 days
Text: (§1) Methods: All study procedures were approved by the IRB, and informed consent was obtained. Three cohorts of volunteers 45-80 years of age with well-controlled comorbidities (NOAD) and one cohort of AD patients diagnosed with cognitive impairment consistent with prodromal AD per International Working Group criteria or mild AD per National Institute on Aging—Alzheimer's Association criteria (n=6 active, 2 placebo per cohort) were enrolled. Participants were admitted to the study site for the duration of the dosing and returned 7-12 days after the last dose for a safety visit. Participants received NTRX-07 (10, 30, or 90 mg) or a placebo in a double-blinded randomization orally once daily for seven days. Subjects were assessed for changes in vital signs, including maneuvers to induce lightheadedness, electrocardiograms, 24-hour electroencephalograms (EEG), and safety laboratory studies. The second cohort returned and received a single repeat dose after a standard high-fat meal. The AD cohort also underwent cognitive testing and had blood samples for biomarkers drawn. Subjects had PK sampling done after the first and final dose of the study drug. An independent safety review committee conducted a blinded safety review of adverse events and plasma levels between each cohort.
(§2) Assessments: Subjects were assessed for changes in vital signs, orthostatic blood pressure, Romberg test, nystagmus, timed get up and go, electrocardiograms, electroencephalograms (EEG), and laboratory studies. Subjective questionnaires of drug effects (ARCI-M) were administered. Cohort B returned and received a single repeat dose after a standard high-fat meal. The AD cohort also underwent cognitive testing (MMSE, ADAS-COG, MOCA) and had blood samples for biomarkers drawn.
(§3) Exploratory endpoints include cognitive testing and potential plasma biomarkers of inflammation. The small group size (6 on treatment, 2 placebo) precludes statistical analysis, but the goals were to gain insights for future study design. Exploratory endpoints include: • MMSE, MOCA & ADAS-COG • IL-12p70, IL-10, IL-4, IL-5, INFg, IL-6, IL-8, IL-22, TNFa, IL-10, hCRP, Chitinase-3, TREM-2, IL-2, Neurogranin, Total Tau, AB42, AB40, NF-LIGHT, pTau-181

healthy volunteers [2] = details: cited from earlier work
healthy volunteers [3] = experiment: Phase 1a single ascending dose study; format: in vivo, human
[4] = system: plasma biomarkers of inflammation; experiment: Plasma biomarkers of inflammation and AD in AD cohort; format: in vivo, human; details: for AB40 Median / AB42 Median / Chitinase-3 Median / IL-1β Median / IL-2 Median / IL-4 Median / IL-5 Median / IL-6 Median / IL-8 Median / IL-10 Median / IL-12p70 Median / IL-22 Median / INFg Median / NF-LIGHT Median / Neurogranin Median / TNFa Median / TREM-2 Median / Total Tau Median / hCRP Median / pTau-181 Median: plasma
Text: as §1, §2
(§4) An informational letter was filed with the FDA to inform them of this study. The study was designed as follows: • 3 healthy cohorts (cohorts A-C) followed by AD cohort (cohort D) treated at MTD • 6 treated, 2 placebos in each cohort • Doses: 10, 30, 90 mg/treatment—latter doses can be adjusted based on PK assessment • In unit, 7 days of treatment • Monitor vertigo with various tests: (1) timed get-up and go, (2) Nystagmus test, (3) Romberg test, and (4) changes in orthostatic blood pressure (Day 1, 3 and 8) • Use 24 hr EEG monitoring for CNS safety assessment • Assess plasma biomarkers of inflammation and AD pre- and post-treatment in AD cohort • Assess changes on cognition post-treatment using MMSE and ADAS-cog • Fed/fasted study to determine food effects on PK as a subset of the Phase 1b
as §3

dogs = experiment: Dog toxicity (CNS safety issue raised by FDA); format: in vivo; details: 200 mg/kg/day
AD cohort [5] = experiment: Cognitive testing MOCA / MMSE in AD cohort; format: in vivo, human; design: MOCA / MOCA Mean (StdDev): scale not given here; details: 90 mg QD 7 days
Text: as §1, §2, §3

[6] = system: volunteers and AD patients; experiment: 24-hour EEG safety assessment and post-hoc qEEG analysis; format: in vivo, human; details: AD patients, 90 mg QD 7 days, post hoc exploratory
Procedure: Protocol-specified EEG assessments were for safety assessment of any potential epileptogenic changes. A post-hoc analysis of quantitative EEG (qEEG) changes was also performed.
as §4
No subjects had clinically meaningful abnormal values or changes from baseline, nor differences between placebo and active drug, in EEG readings in any of the 4 cohorts.

[7] = Day −2 (baseline), individual subjects
[8] = EOS Visit (Day 14-19), individual subjects
[9] = after 7 days of 90 mg QD, Day 8

SMILES: CC1(Cc2ccccc2)COc2cc(C(=O)N3CCCCC3)ccc21 (stereo not shown) [NTRX-07, 3-benzyl-3-methyl-2,3-dihydrobenzofuran-6-carboxylic acid-piperidine amide]
- ADAS-COG Mean (StdDev) (AD cohort [1]; Day 8): 12.72 (1.56)
- ADAS-COG (AD cohort [1]; Day 8, individual subjects): 11.00 and 15.33 and 11.67 and 12.67 and 12.00 and 13.67
- ADAS-COG Mean (StdDev) (AD cohort [1]; Day −2 (baseline)): 17.50 (2.83)
- ADAS-COG (AD cohort [1]; [7]): 17.00 and 18.33 and 13.33 and 22.00 and 18.00 and 16.33
- ADAS-COG Mean (StdDev) (AD cohort [1]; EOS Day 14-19): 13.17 (3.46)
- ADAS-COG (AD cohort [1]; [8]): 9.33 and 19.33 and 11.00 and 12.00 and 13.00 and 14.33
- ADAS-COG trend (AD cohort [1]; immediately post-treatment): Trend toward improvement
- Adverse effect at high doses (healthy volunteers [2]; single doses of 3.5 and 4 mg/kg): transient lightheadedness
- Major adverse effects (healthy volunteers [2]; single doses up to 2 mg/kg, healthy volunteers): no major adverse effects
- No adverse events level (healthy volunteers [3]; Phase 1a single ascending dose): 2 mg/kg
- Adverse events in Phase 1a (healthy volunteers [3]; single ascending dose): Only minor, non-dose limiting adverse events
- Changes in plasma biomarkers ([4]; 90 mg QD 7 days): No significant changes in biomarkers or plasma biomarkers; also recorded: no consistent changes
- AB40 Median ([4]; 90 mg QD, Day 1 (baseline)): 232.84 pg/mL
- AB42 Median ([4]; 90 mg QD, Day 1 (baseline)): 8.29 pg/mL
- Chitinase-3 Median ([4]; 90 mg QD, Day 1 (baseline)): 43668.33 pg/mL
- IL-1β Median ([4]; 90 mg QD, Day 1 (baseline)): 0.13 pg/mL
- IL-2 Median ([4]; 90 mg QD, Day 1 (baseline)): 0.16 pg/mL
- IL-4 Median ([4]; 90 mg QD, Day 1 (baseline)): 1.38 pg/mL
- IL-5 Median ([4]; 90 mg QD, Day 1 (baseline)): 0.17 pg/mL
- IL-6 Median ([4]; 90 mg QD, Day 1 (baseline)): 2.19 pg/mL
- IL-8 Median ([4]; 90 mg QD, Day 1 (baseline)): 7.65 pg/mL
- IL-10 Median ([4]; 90 mg QD, Day 1 (baseline)): 0.35 pg/mL
- IL-12p70 Median ([4]; 90 mg QD, Day 1 (baseline)): 0.34 pg/mL
- IL-22 Median ([4]; 90 mg QD, Day 1 (baseline)): 0.9 pg/mL
- INFg Median ([4]; 90 mg QD, Day 1 (baseline)): 0.08 pg/mL
- NF-LIGHT Median ([4]; 90 mg QD, Day 1 (baseline)): 18.24 pg/mL
- Neurogranin Median ([4]; 90 mg QD, Day 1 (baseline)): 671.19 pg/mL
- TNFa Median ([4]; 90 mg QD, Day 1 (baseline)): 0.69 pg/mL
- TREM-2 Median ([4]; 90 mg QD, Day 1 (baseline)): 38468.67 pg/mL
- Total Tau Median ([4]; 90 mg QD, Day 1 (baseline)): 2.07 pg/mL
- hCRP Median ([4]; 90 mg QD, Day 1 (baseline)): 4135.17 ng/mL
- pTau-181 Median ([4]; 90 mg QD, Day 1 (baseline)): 21.53 pg/ml
- AB40 Median [4, 9]: 226.52 pg/mL
- AB42 Median [4, 9]: 8.57 pg/mL
- Chitinase-3 Median [4, 9]: 40345.17 pg/mL
- IL-1β Median [4, 9]: 0.11 pg/mL
- IL-2 Median [4, 9]: 0 pg/mL
- IL-4 Median [4, 9]: 1.14 pg/mL
- IL-5 Median [4, 9]: 0.19 pg/mL
- IL-6 Median [4, 9]: 2.44 pg/mL
- IL-8 Median [4, 9]: 10.41 pg/mL
- IL-10 Median [4, 9]: 0.38 pg/mL
- IL-12p70 Median [4, 9]: 0.33 pg/mL
- IL-22 Median [4, 9]: 0.87 pg/mL
- INFg Median [4, 9]: 0.08 pg/mL
- NF-LIGHT Median [4, 9]: 18.49 pg/mL
- Neurogranin Median [4, 9]: 881.02 pg/mL
- TNFa Median [4, 9]: 0.83 pg/mL
- TREM-2 Median [4, 9]: 39576.17 pg/mL
- Total Tau Median [4, 9]: 2.03 pg/mL
- hCRP Median [4, 9]: 4211.88 ng/mL
- pTau-181 Median [4, 9]: 20.16 pg/ml
- Seizures (dogs): Seizures in 1 or 2 dogs
- Changes in cognitive scores (MMSE, MOCA) (AD cohort [5]): No significant changes in cognitive scores; also recorded: No appreciable changes
- MOCA Mean (StdDev) (AD cohort [5]; Day 8): 19.7 ± 1.8
- MOCA (AD cohort [5]; Day 8, individual subjects): 22 and 21 and 19 and 20 and 17
- MOCA Mean (StdDev) (AD cohort [5]; Day −2 (baseline)): 20.5 ± 2.6
- MOCA (AD cohort [5]; [7]): 22 and 21 and 24 and 18 and 17
- MOCA Mean (StdDev) (AD cohort [5]; EOS Day 14-19): 20.7 ± 3.5
- MOCA (AD cohort [5]; [8]): 25 and 15 and 20 and 23 and 22 and 19
- qEEG mean frequency (AD effect) [6]: treatment partially reversed this AD effect; also recorded: Trend towards improvement; also recorded: partial reversion of AD effect; also recorded: increasing mean frequency
